The structures appear in SMILES notation.

Series [1] deals with T1, recombinant HIV-1 capsid protein (CA) (Human immunodeficiency virus type 1 group M subtype B, UniProt P12493).
T1 construct: recombinant HIV-1 capsid protein (CA); made in house
Nature of the series: Turbidity based HIV-1 capsid assembly assay. Format: biochemical. As to conditions: initial assembly rate by turbidity; twofold dilutions over a 128 fold range; 30 μM CA, 2.25 M NaCl. On the procedure: The kinetics can be followed by monitoring the increase of turbidity using a spectrophotometer. The IC50 of the chemical compound tested is determined by titration. As the C-domain inhibits capsid assembly by forming CA-C-domain heterodimers, the effect of added C-terminal domain on the rate of assembly was evaluated by plotting the rate of assembly versus C-terminal domain concentration.
Soluble HIV-1 capsid protein can be triggered to assemble into tubes similar in diameter and morphology to intact cores by dilution into high iconic strength buffer. The kinetics of assembly can be followed by monitoring the increase in turbidity using a spectrophotometer (Lanham et al., J. Virol., 76:6900, 2002). This assembly assay was adapted to a 96-well, microplate format to allow for medium-throughput screening of compounds by measuring turbidity in a Nepeloskan Ascent plate reader (Thermo Electron Corp., UK). A DIVERSet™ library of 10,000 low molecular weight, “drug-like” compounds was purchased from ChemBridge Corp. (San Diego, Calif.). This library was selected for its potential bioavailability and application based on a pharmacophore diversity analysis. The average molecular weight of the compounds is 347 g/mol, the range being 200-596 g/mol. The compounds came plated in 96-well plates and solubilized in DMSO at 5 mgs/mL.
Turbidity based assay. A 1.5 μL aliquot of compound was diluted 90-fold into 50 mM Na2HPO4, […] buffer, pH 8 in an optically clear 96-well plate. The plate containing compounds and salt was read to check for compound solubility and to serve as a background reading for the assay. To initiate the assembly reaction, 15 μL of […] stock (in 50 mM Na2HPO4 pH 8) of recombinant HIV-1 capsid protein (CA), purified as described (Lanman et al., J. Virol., 76:6900, 2002), was added to each well of the 96-well plate using a multi-channel pipettor. […] Furthermore, the halftime of the assembly reaction is ˜5 minutes so reading the plate in thirds prevented loss of initial rate data. Therefore, CA was added to the first 4 lanes, the reactions followed for ten minutes, reading was paused, CA was then added to the next four lanes and the process repeated. Instrument settings are as follows: PMT gain of 500 V, lamp at 10V, and integration time of 60 ms. The data were exported to a custom designed Excel spreadsheet that allowed simultaneous plotting of kinetic curves.
Recombinant CA protein was purified as previously described and stored at 300 μM at −80° C. A turbidity based assembly assay, described above, was adapted to a 96-well, microplate format to allow for medium-throughput screening of compounds in a Nepheloskan Ascent plate reader (Thermo Electron Corp., UK). A 1.5 μL aliquot of compound or DMSO was diluted 90-fold into 50 mM Na2HPO4, 2.25 M NaCl buffer, pH 8 in an optically clear 96-well plate. To initiate the assembly reaction, 15 μL of the 300 μM stock (in 50 mM Na2HPO4 pH 8) of recombinant HIV-1 capsid protein (CA), was added to each well of the 96-well plate using a multi-channel pipettor.

For series [2], the system named is HIV-1NL43. Put plainly: Anti-HIV assay (single round), infectivity of virus produced, titered on TZM-b1 cells. The series is classed as cell-based. To be noted: virus from NL43-transfected 293T cells, 72 hours; luciferase after two days; read-out: Infectivity 50%. On the procedure: (§1) Anti-HIV Assays (Single Round). The inhibitory effect of the compounds on virus production and infectivity were determined by measuring the level of p24 produced in the presence of various concentrations of compounds from HEK-293 cells transiently transfected with pNL43 and by titering the virus on TZM-b1 cells. Briefly, 2.5×10^5 HEK-293 cells/ml were transfected with pNL43 using FuGene 6. Four hours post transfection the cells were plated in 96-well plates containing 100 μl of various concentrations of compounds (0-75 μM or 0-300 μM for mock transfected cells) in triplicate. At 72-hours post transfection virus supernatant was collected and stored at −80° C. until analysis. The level of p24 produced at each compound concentration was determined relative to the level produced in the presence of the DMSO only controls using HIV-1 p24 enzyme-linked immunosorbent assay (ELISA) (Beckman-Coulter). To determine the infectivity of the virus produced TZM-b1 cells were plated at 1×10^5 cells/ml in 100 μL in 96-well plates overnight. The next day, the media was replaced with 75 μL DMEM supplemented with 1% FBS, 1× PSG and 40 μg/ml DEAE Dextran and 25 μL of viral supernatant from the HEK-293 cells was added to each well. Three hours later 100 μL of DMEM with 7% FBS was added to each well. Two days after infection the cells were lysed and the level of luciferase expression was determined using the Bright-Glo assay.
(§2) FIGS. 12-18 show the anti-HIV assays for the examples of chemical compounds used according to the invention. After in-vitro assay, the chemical compounds in FIGS. 12-18 were selected for screening for cell viability and toxicity. Jurkat cells assay was used as screening assay. In Jurkat cells assay, JLTRG-R5 cells were used as Indicator cells and MOLT4 cells as Producer cells of NL43 and BAL virus. 96 chemical compounds were plated at seven different concentration from 75 μM to 0 μM at three-fold serial dilutions in 384 well plate. After five days, GFP expression was read. Cell viability was monitored with Alamar Blue assay. Luc M7 assay was designed to measure inhibitory activity of the chemical compounds to viral replication. After infection of cells with YU2 virus, plate cells in 96-well plate in the presence of six concentration of compounds in DMSO. At day 6, the number of cells in wells were read with Cell Titer Glo kit or by counting the number of cells infected with Bright Glo kit. 293T cells assay was designed to determine the toxicity. 293T cells were transfected with NL43. After four hours, transfected cells were plated in 96-well plate in DMSO and 2 μM Indinavir. 72 hours later, viral supernatant was collected and plated on JC53BL. Luciferase expression was measure after two days and p24 analysis was conducted with 1:1000 and 1:2000 dilutions.

For series [3], the system named is HIV-1NL43. Nature of the series: Anti-HIV assay (single round), p24 production by pNL43-transfected cells (ELISA). Format: cell-based. To be noted: p24 in supernatant of NL43-transfected 293T cells, 72 hours; read-out: p24 50%. On the procedure:
as §1, §2

For another series, the system named is 293T cells. Nature of the series: Toxicity in 293T cells. Format: cell-based, human. Also noted: unit not given beside the values. The procedure:
as §1, §2

The nature of series [4]: MTS score (Table 1; method not described). The series is classed as cell-based. As to conditions: for MTS AVG 4 (No Effect): average of the MTS scores at 10, 30 and 100 μM; for MTS 10 μM: score at nominal 10 μM; for MTS 10 μM / MTS 30 μM / MTS 100 μM: 4 = No Effect; for MTS 30 μM: score at nominal 30 μM; for MTS 100 μM: score at nominal 100 μM.
A further series has as its system Luc-M7 cells. Nature of the series: Cell viability of Luc-M7 cells (Cell-Titer Glo). Format: cell-based. Also noted: unit: μM. To be noted: mock-infected Luc-M7 cells, 6 days. On the procedure: (§3) Anti-HIV Assays (Multiple Round). The inhibitory effects of the tested compounds on HIV-1YU2 replication were determined by the level of luciferase expression after 6 days of infection using Bright-Glo assay (Promega). An amount of 1.5×10^4 Luc-M7 (a gift from Ned Landau) cells per ml were infected with HIV-1YU2 at a multiplicity of infection (MOI) of 3. The HIV-1 infected ([…] compound) or mock-infected (0-300 μM compound) Luc-M7 cells were placed in 96-well culture plates (100 μl/well) with 100 μl of various concentrations of the compounds with 20 μg/ml DEAE Dextran in triplicate and incubated at 37° C. under 5% CO2 at 100% humidity. After 6 days, cell viability was quantified by Cell-Titer Glo assay (Promega). […] On day 5 cell viability was determined in the mock-infected cells. FIGS. 12-18 show the anti-HIV assays for the examples of chemical compounds used according to the invention. After in-vitro assay, the chemical compounds in FIGS. 12-18 were selected for screening for cell viability and toxicity. Jurkat cells assay was used as screening assay. […] After five days, GFP expression was read. Cell viability was monitored with Alamar Blue assay. Luc M7 assay was designed to measure inhibitory activity of the chemical compounds to viral replication. After infection of cells with YU2 virus, plate cells in 96-well plate in the presence of six concentration of compounds in DMSO. At day 6, the number of cells in wells were read with Cell Titer Glo kit or by counting the number of cells infected with Bright Glo kit. 293T cells assay was designed to determine the toxicity. 293T cells were transfected with NL43. After four hours, transfected cells were plated in 96-well plate in DMSO and 2 μM Indinavir. 72 hours later, viral supernatant was collected and plated on J[…].

The subject of another series is HIV-1YU2. Put plainly: Anti-HIV assay (multiple round), luciferase expression in Luc-M7 cells. The series is classed as cell-based. To be noted: Luc-M7 cells infected with HIV-1YU2, 6 days, Bright-Glo. The procedure: as §3

Turning to `O=C(O)C(S)Cc1ccc(Cl)cc1` (centres unmarked) [Compound 47], the IC50 in series [1] came to 37 µM. Moreover, the IC50 in the series with HIV-1NL43 [2] stood at 34.2 µM. Also, the IC50 in the series with HIV-1NL43 [3] was 24.6 µM. Besides, in the series with 293T cells, the TC50% is reported as 202. Also, in series [4], the “MTS AVG 4 (No Effect)” value came out at 2.000, the “MTS 10 μM” value was 4, the “MTS 30 μM” value is 1 and the “MTS 100 μM” value was 1.
For the compound `COc1ccc(NS(=O)(=O)c2ccc(Br)cc2)cc1OC` [Compound 14], the IC50 in series [1] was found to be 10 µM. In the series with HIV-1NL43 [2], the IC50 was > 75 µM. Moreover, the IC50 with HIV-1NL43 [3] is 62.8 µM. The compound further yielded a TC50% with 293T cells of 102. For the same compound, in series [4], the “MTS AVG 4 (No Effect)” value is 1.667, the “MTS 10 μM” value turned out to be 2, the “MTS 30 μM” value was 1 and the “MTS 100 μM” value worked out at 2.
`Cc1ccc(S(=O)(=O)NN=Cc2cc(Br)cc(Br)c2O)cc1` [Compound 73]: the IC50 in series [1] was 15 µM. The IC50 with HIV-1NL43 [2] was 32 µM. The IC50 in the series on HIV-1NL43 [3] stood at 70 µM. In the series on 293T cells, this compound gave a TC50% of 178. Moreover, in series [4], the “MTS AVG 4 (No Effect)” value came out at 3.000, the “MTS 10 μM” value is 4, the “MTS 30 μM” value was 3 and the “MTS 100 μM” value is on record as 2.
With `CCN(CC)c1ccc(C=Nc2ccc(Sc3ccc([N+](=O)[O-])cc3)cc2)cc1` [Compound 70], the IC50 worked out at 33 µM in series [1], 32.9 µM in the series on HIV-1NL43 [2], 1.47 µM in the series on HIV-1YU2 and 67.5 µM in the series on HIV-1NL43 [3]. For the same compound, the TC50 in the series with Luc-M7 cells is given as 92.5. In the series with 293T cells, the TC50% worked out at 135. The “MTS AVG 4 (No Effect)” value in series [4] was found to be 3.000. For the same compound, the “MTS 30 μM” value in series [4] is 4. Further, the “MTS 100 μM” value in series [4] is given as 2.
Consider `O=[N+]([O-])c1c(Cl)cc(O)c2c1C1C=CCC1C(c1ccc(Br)cc1)N2` (centres unmarked) [Compound 25], for which, in series [1], the IC50 amounted to 10 µM. Besides, the IC50 with HIV-1NL43 [2] turned out to be 17.7 µM. Also, in the series with HIV-1NL43 [3], the IC50 was determined as 10.4 µM. In the series on 293T cells, this compound had a TC50% of 174. In series [4], the “MTS AVG 4 (No Effect)” value is given as 1.000, the “MTS 10 μM” value was determined as 1, the “MTS 30 μM” value came out at 1 and the “MTS 100 μM” value was determined as 1.
On to `Cc1nc2ccccc2n1Cc1ccc(Br)cc1` [Compound 18], for which the IC50 in series [1] was 21 µM. Moreover, the IC50 in the series on HIV-1NL43 [2] came to 43.2 µM. Further, the IC50 with HIV-1NL43 [3] is 1.8 µM. In the series with 293T cells, this compound had a TC50% of 9.1. Moreover, in series [4], the “MTS AVG 4 (No Effect)” value stood at 1.000, the “MTS 10 μM” value is on record as 1, the “MTS 30 μM” value was determined as 1 and the “MTS 100 μM” value is reported as 1.
With `CCc1ccc(OCCCCCn2ccnc2)cc1` [Compound 58], in series [1], the IC50 stood at 25 µM. Moreover, in the series with HIV-1NL43 [2], the IC50 was determined as 10 µM. Besides, the TC50 in the series on Luc-M7 cells is 8.7. For the same compound, the IC50 in the series with HIV-1YU2 stood at 0.06 µM. Further, the IC50 with HIV-1NL43 [3] amounted to 1.69 µM. Besides, the TC50% in the series with 293T cells is recorded as 5. In series [4], the “MTS AVG 4 (No Effect)” value is reported as 1.333, the “MTS 10 μM” value was determined as 2, the “MTS 30 μM” value was 1 and the “MTS 100 μM” value was found to be 1.

Values taken from patent US20090176776A1, “SMALL MOLECULE INHIBITORS OF HIV-1 CAPSID ASSEMBLY” (UNIVERSITY OF ALABAMA AT BIRMINGHAM, priority 2005, published 2009).
